For orientation: IC50 means the concentration at which inhibition is half-maximal. A lower IC50 goes with inhibition by little substance.

Data on 19 molecules can be found in ChEMBL document CHEMBL1135623, “Synthesis and pharmacological evaluation of 1-[(1,2-diphenyl-1H-4-imidazolyl)methyl]-4-phenylpiperazines with clozapine-like mixed activities at dopamine D(2), serotonin, and GABA(A) receptors” (J Med Chem, 2002).

Assay [1] concerns the target T1, 5-hydroxytryptamine receptor 1A (Rattus norvegicus, UniProt P19327).
T1 sequence (P19327 whole entry): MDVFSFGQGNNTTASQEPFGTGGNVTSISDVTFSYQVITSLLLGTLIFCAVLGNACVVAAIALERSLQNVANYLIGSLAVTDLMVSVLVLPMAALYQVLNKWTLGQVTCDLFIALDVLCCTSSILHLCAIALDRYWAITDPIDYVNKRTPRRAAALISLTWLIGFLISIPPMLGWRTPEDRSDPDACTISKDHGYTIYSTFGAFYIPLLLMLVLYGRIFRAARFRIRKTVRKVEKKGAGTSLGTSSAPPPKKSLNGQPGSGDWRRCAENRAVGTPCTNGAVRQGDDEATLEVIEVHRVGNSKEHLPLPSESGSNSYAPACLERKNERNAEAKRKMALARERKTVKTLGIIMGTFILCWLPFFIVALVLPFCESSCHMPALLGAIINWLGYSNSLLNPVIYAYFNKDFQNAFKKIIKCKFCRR
The experiment in a line: In vitro binding affinity for serotonin 5-hydroxytryptamine 1A receptor fof rat cerebral cortex using [3H]8-OH-DPAT as radioligand. Type of assay: tissue-based.

Assay [2] has as its target 5-hydroxytryptamine receptor 2A (Rattus norvegicus, UniProt P14842). Nature of the assay: In vitro binding affinity for serotonin 5-hydroxytryptamine 2A receptor of rat cerebral cortex using [3H]ketanserin as radioligand. In kind it is tissue-based.

Chain of 5-hydroxytryptamine receptor 2A (P14842 whole entry): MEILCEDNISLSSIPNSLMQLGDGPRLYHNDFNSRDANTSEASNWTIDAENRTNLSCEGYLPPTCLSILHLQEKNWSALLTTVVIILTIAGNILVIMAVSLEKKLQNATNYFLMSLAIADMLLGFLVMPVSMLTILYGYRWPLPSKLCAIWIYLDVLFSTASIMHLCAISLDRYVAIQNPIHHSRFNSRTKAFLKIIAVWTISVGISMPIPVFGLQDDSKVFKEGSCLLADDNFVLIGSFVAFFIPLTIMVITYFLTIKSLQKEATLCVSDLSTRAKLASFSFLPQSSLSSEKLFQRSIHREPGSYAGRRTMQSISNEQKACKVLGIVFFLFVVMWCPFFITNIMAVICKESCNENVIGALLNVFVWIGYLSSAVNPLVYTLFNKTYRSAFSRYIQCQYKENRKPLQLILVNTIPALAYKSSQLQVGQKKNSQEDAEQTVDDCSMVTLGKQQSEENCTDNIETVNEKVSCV

As for `CCOc1ccccc1N1CCN(Cc2cn(-c3ccc(F)cc3)c(-c3ccc(F)cc3)n2)CC1`, the half-maximal inhibitory concentration (IC50) in assay [1] amounted to 51.9 nM. Turning to `COc1cccc(N2CCN(Cc3cn(-c4ccccc4)c(-c4ccccc4)n3)CC2)c1`, the figures for the 50% inhibitory concentration (IC50) in assay [1] and in assay [2] were 271 nM and 2340 nM, respectively. Turning to `COc1ccccc1N1CCN(Cc2cn(-c3ccc(F)cc3)c(-c3ccc(F)cc3)n2)CC1`, the figures for the half-inhibitory concentration (IC50) in assay [1] and in assay [2] were 171 nM and 259 nM, respectively. For `FC(F)(F)c1cccc(N2CCN(Cc3cn(-c4ccccc4)c(-c4ccccc4)n3)CC2)c1` the same measures were 206 nM and 2130 nM.

As to `CN1CCN(Cc2cn(-c3ccccc3)c(-c3ccccc3)n2)CC1`, the concentration for half-maximal inhibition (IC50) in assay [2] was greater than 10000 nM. Consider `Fc1ccccc1N1CCN(Cc2cn(-c3ccccc3)c(-c3ccccc3)n2)CC1`, for which the results for the IC50 in assay [1] and in assay [2] were 332 nM and 25.3 nM, respectively.

With `FC(F)(F)c1ccc(N2CCN(Cc3cn(-c4ccccc4)c(-c4ccccc4)n3)CC2)cc1`, the IC50 in assay [1] came out at 224 nM; in assay [2], 1510 nM. For `COc1ccc(N2CCN(Cc3cn(-c4ccccc4)c(-c4ccccc4)n3)CC2)cc1` the same measures were 8440 nM and 1920 nM. `COc1ccccc1N1CCN(Cc2cn(-c3ccccc3)c(-c3ccccc3)n2)CC1` yielded a 50% inhibitory concentration (IC50) in assay [2] of 131 nM. The same measure, in the same setting: with `CN(C)CCCSc1ccccc1NC(=O)/C=C/c1ccccc1` [CINANSERIN] the figure was 14.8 nM. On to `Fc1ccc(N2CCN(Cc3cn(-c4ccccc4)c(-c4ccccc4)n3)CC2)cc1`, for which the IC50 in assay [1] was 806 nM; in assay [2], 501 nM.

For `Clc1ccc(N2CCN(Cc3cn(-c4ccccc4)c(-c4ccccc4)n3)CC2)cc1`, the values for the IC50 in assay [1] and in assay [2] were 1890 nM and 315 nM, respectively.

Take `Clc1ccccc1N1CCN(Cc2cn(-c3ccccc3)c(-c3ccccc3)n2)CC1`: the half-maximal inhibitory concentration (IC50) worked out at 255 nM in assay [1] and 142 nM in assay [2]. Turning to `Clc1cccc(N2CCN(Cc3cn(-c4ccccc4)c(-c4ccccc4)n3)CC2)c1`, the half-maximal inhibitory concentration (IC50) was 166 nM in assay [1] and 717 nM in assay [2]. As to `CCOc1ccccc1N1CCN(Cc2cn(-c3ccccc3)c(-c3ccccc3)n2)CC1`, the IC50 in assay [1] stood at 56.9 nM; in assay [2], 172 nM. Take `c1ccc(-c2nc(CN3CCN(c4ccccn4)CC3)cn2-c2ccccc2)cc1`: the results for the IC50 in assay [1] and in assay [2] were 197 nM and 2020 nM, respectively. With `Fc1ccc(-c2nc(CN3CCN(c4ccccc4)CC3)cn2-c2ccc(F)cc2)cc1`, the half-inhibitory concentration (IC50) in assay [1] was found to be 525 nM; in assay [2], 783 nM. For `c1ccc(-c2nc(CN3CCN(c4ccccc4)CC3)cn2-c2ccccc2)cc1` the same measures were 2700 nM and greater than 10000 nM. For `c1ccc(CN2CCN(Cc3cn(-c4ccccc4)c(-c4ccccc4)n3)CC2)cc1`, the results for the IC50 in assay [1] and in assay [2] were 1130 nM and 2170 nM, respectively.
